According to a melting point compilation (Tetko et al.; mined from patent text by program, amines drawn as free bases though some values may be those of a salt):

| SMILES | melting point [°C] |
| --- | --- |
| COC[C@@H]1CC[C@H](c2ccc(F)cc2)N1S(=O)(=O)c1ccc(C)cc1 (racemic) | 152 |
| COc1ncccc1-c1ccc(OC2SCC(O)C(O)C2O)cn1 (centres undefined) | 127 |
| Nc1[nH]c(=O)c(C(=O)NCC2CCN(CC3CCCCC3)CC2)cc1Cl | 142 to 146 |
| COc1cc(C(N)=O)ccc1-c1nc2cc3c(cc2[nH]1)NC(=O)C3(C)C | 265 to 270 |
| CCCC(=O)Nc1c(C)c(C)c2c(c1C)CC(C)(C)O2 | 136 to 138 |
| Fc1cccc(F)c1C(C1=NOCCO1)N1CCc2sccc2C1 (centres undefined) | 151 to 153 |
| CC1(C)OC(C=Cc2ccsc2)=CC1=O | 79 to 80 |
| CCCCCCc1nc2c(N)nc3ccccc3c2n1CCCCNS(=O)(=O)c1ccccc1 | 84.8 to 85.4 |
| CCOC(=O)c1ccc(OCC2=CCN(c3ccc(Cl)nn3)CC2)cc1 | 162 |
| Cc1c(C)c2c(c(C)c1N)CC(C)(CN1CCN(c3ccccc3)CC1)O2 (centres undefined) | 94 to 95 |
| O=P(Oc1ccc(-c2ccc(OP(=O)(c3ccccc3)c3ccccc3)cc2)cc1)(c1ccccc1)c1ccccc1 | 233 to 234 |
| CC(C)=CCCn1ccnc1[N+](=O)[O-] | 49 to 51 |
| O=C1CN2Cc3cc(OCCCCCCO)ccc3N=C2N1 | 236 to 237 |
| CSc1ccc(NC(=N)c2ccc(C(F)(F)F)cc2)cc1 | 144 to 146 |
| Cn1nc(-c2ccccc2)c(N2CCOCC2)c(C=NO)c1=O | 182 to 183 |
| C/C(=C\CC1OC(=O)NC1=O)c1cccc(Cc2nc(-c3ccccc3)oc2C)c1 (centres undefined) | 138 to 139 |
| CCn1c(COC(=O)OCc2nc(C(C)C)c(Sc3cc(Cl)cc(Cl)c3)n2CC)nc(C(C)C)c1Sc1cc(Cl)cc(Cl)c1 | 73 to 76 |
| O=C(CBr)C1=Cc2ccccc2OC1 | 87 |
| O=C(OCC(=O)N1CCCC1=O)c1ccccc1 | 83 to 84 |
| CN(CCO)c1ccc(C=Cc2ccc(S(C)(=O)=O)cc2)cc1 | 201 to 204 |

| SMILES | melting point [°C] |
| --- | --- |
| C[C@@H]1S[C@@H](C(=O)Nc2ccc(CN3C(=O)CN(C)C3=O)cc2)Cc2cc3c(cc2C1=O)OCO3 | 228 to 230 |
| O=C(O)C(O)(CC1CCCCC1)c1ccccc1 (centres undefined) | 138 to 140 |
| O=[N+]([O-])c1cc(O)c(OCCOCCO)cc1[N+](=O)[O-] | 135 |
| CC(Nc1ccc(Oc2ccc(O)cc2)cc1)C(=O)O (centres undefined) | 188 |
| CNC1(c2ccccc2Cl)C(=O)Nc2ccc(F)cc21 (centres undefined) | 188 to 189 |
| COc1ccc(-c2cnc(C3(c4ccc(OC)c(OC)c4)NCCc4c3[nH]c3ccccc43)nc2)cc1OC (centres undefined) | 184 to 186 |
| CCc1ccc(SCc2c(C(C)C)nc(C(C)C)c(CO)c2-c2ccc(F)cc2)cc1 | 102 to 103 |
| O=C(O)/C=C/c1cc([N+](=O)[O-])ccc1O | 265 to 267 |
| N#Cc1cc(F)c(-n2nc(C(F)(F)F)[nH]c2=O)cc1F | 51 |
| CC(C)CNc1nccc(Oc2ccc(NC(=O)c3cc(F)cc(N4CCOCC4)c3)c3ccccc23)n1 | 96 to 97 |
| CCCc1cc(NCc2ccc3c(c2)OCO3)nc(SCC#N)n1 | 92 to 94 |
| Cc1nc2c3c(c(C(=O)N4CC(F)C4)cc2n1C)CCC1(Cc2ccccc2C1)N3 | 259 to 260 |
| CCN(CC)CC(O)CNC(=O)c1c(OC)c2cc(C)ccc2n1-c1ccccc1 (centres undefined) | 126 to 128 |
| COC(=O)CC(=O)C[C@@H]1[C@@H](N2C(=O)c3ccccc3C2=O)C(=O)N1C(=O)C(=O)OC | 130 to 132 |
| COc1cc2c(c3c1OC(C)(C)C3)C(c1cccc(-c3ccc(NC(=O)C(F)(F)F)cc3)c1)=NC(C)(C)C2 | 149 to 154 |
| COc1ccc(OC2SCC(O)C(O)C2O)cn1 (centres undefined) | 159 to 161 |
| CN(C)C(=O)c1c(S(N)(=O)=O)ccn1C | 185 to 190 |
| Cc1cccc(-n2nccc2-c2nn(-c3cccc(C(F)(F)F)c3)ccc2=O)c1 | 142 to 143 |
| C#CCn1c(C)c(C)c2cnnc(OCc3ccccc3)c21 | 116 to 117 |
